# Values of other authors in patent US11904002B2, “Construction and methods of use of a therapeutic cancer vaccine library comprising fusion-specific vaccines” (BostonGene Corporation, priority 2016, dated 2024).
# System: CD8+ T-cells
# Details: CD8+ T-cells generated as a consequence of anti-PD1 treatment; murine MHC H-2Kb
row,Sequence,recognition by CD8+ T-cells
1,ITYTWTRL,targets of CD8+ T-cells
2,VGFNFRTL,targets of CD8+ T-cells
